Assay [1] has as its system GFP-positive INA-6 cells in human bone chips of SCID-hu mice. Description: SCID-hu murine model of human MM. Type of assay: in vivo. As to conditions: for shuIL-6R serum levels: 5 mg/kg local injection every other day; for tumor cell invasion outside the bone chip: histologic analysis. As to the method:
In a second in vivo model, the impact of SAH-BCL9B treatment on the growth of INA-6 MM cells within a human bone graft implanted in the flank of SCID-hu mice was examined (Tassone, P. et al. Blood 106, 713-6 (2005)). GFP-labeled INA-6 cells (5×10^6), which express both BCL9 and β-catenin and are suppressed by SAH-BCL9B in vitro were injected into bone grafts four weeks after implantation. Two days later, cohorts of mice (n=5) were treated by local injection with vehicle (2.5% DMSO in D5W), SAH-BCL9B, or SAH-BCL9B(R359E) peptides (5 mg/kg) for a total of 10 doses administered every other day. To monitor tumor burden, the serum level of soluble human interleukin-6 receptor (shuIL-6R) was measured, which is first detectable 3-4 weeks after INA-6 tumor engraftment. […] Mice were sacrificed 33 days after INA-6 cell injection and evaluated for MM tumor burden by fluorescence imaging, histologic analysis, and anti-CD34 staining. […] Similar to the CRC model, local angiogenesis was suppressed in SAH-BCL9B-treated SCID-hu mice, as monitored by anti-CD34 staining and blood vessel quantitation (FIG. 4I).
For the SCID-hu murine model of human MM, human fetal bone grafts measuring 1.5×0.5 cm were subcutaneously implanted into eight week old male CB-17 SCID mice (Taconic) as previously described (Tassone, P. et al. Blood 106, 713-6 (2005)). Four weeks after bone implantation, 5×10^6 GFP-positive INA-6 MM cells were injected directly into each bone implant. Two days later, mice were treated with 100 μl injections of vehicle (2.5% DMSO in D5W) or SAH-BCL9 peptides (5 mg/kg) instilled adjacent to the bone chips on alternate days for a total of 10 doses. Mouse sera were serially monitored for shuIL-6R levels by ELISA (R&D Systems). Thirty-three days after tumor cell injection, the mice were sacrificed and analyzed for tumor burden by fluorescence imaging and histologic analysis of the bone grafts. See results in FIG. 4A-FIG. 4I. In addition, TUNEL staining was performed on samples obtained from the mice. […] See results in FIG. 22 and FIG. 23. All animal experiments were performed in accordance with approved protocols of the Dana-Farber Cancer Institute Animal Care and Use Committee.

Assay [2] has as its system Wnt-dependent reporter activity (TOP-FLASH) in Colo320 cells. Put plainly: Wnt-specific TCF reporter gene assay (TOP-FLASH dual luciferase). Type of assay: cell-based. As to conditions: Colo320, normalized to Renilla. As to the method:
Luciferase activity was measured using the Dual Luciferase Reporter Assay System (Promega) as previously described (Sukhdeo, K. et al. Proc Natl Acad Sci USA 104, 7516-21 (2007)). To measure Wnt or NFκB reporter activity, Colo320 cells were transfected with TOP-FLASH, FOP-FLASH plasmid (Millipore Corporation) or NFκB luciferase reporter (Stratagene), along with an internal Renilla control plasmid (hRL-null). Transfection was accomplished using FuGENE (Roche) according to the manufacturer's protocol. The results were normalized to control Renilla activity. The reported data represent the average of three independent transfection experiments performed in triplicate. See results in FIG. 9, FIG. 10.
(In a reporter assay the amount or activity of a reporter protein is the signal.)

Assay [3] concerns TCF regulatory sequences (7×TdG) in Colo320 cells. Put plainly: dGFP reporter under TCF regulatory sequences (7×TdG). Type of assay: cell-based. An excerpt:
A lentiviral reporter vector containing seven TCF/LEF-1 binding motifs and a minimal promoter driving destabilized GFP expression (7×TdG) was derived from the lentiviral vector TOP-dGFP, which contains three TCF/LEF-1 binding motifs (Sukhdeo, K. et al. Proc Natl Acad Sci USA 104, 7516-21 (2007)). Two synthetic complementary oligonucleotides (IDT-DNA) with four TCF/LEF-1 binding motifs (GATCAAAGG) were designed to generate compatible overhanging ends for annealing to an Xba1 restriction site. The oligonucleotides were annealed by heating to 95° C. and slow cooling to room temperature, followed by ligating into the Xba1-linearized TOP-dGFP vector, yielding 7×TdG. For construction of the control vector carrying seven FOP-sites (7×FdG), the 7×TOP cassette was removed from the 7×TdG vector by restriction digesting with Xma1 and Age1. A synthetic cassette carrying seven FOP sites (GGCCAAAGG) but otherwise identical to the removed 7×TOP cassette was inserted, yielding 7×FdG. BCL9 shRNA and control shRNA lentiviral vectors were generated as reported (Sampietro, J. et al. Mol Cell 24, 293-300 (2006)). See results in FIG. 10, FIG. 11B. […]
Colo320 cells were subjected to infection for 72 h with either 7×TdG or 7×FdG lentivirus, and the transduced and control non-transduced cells were trypsinized, washed, and then analyzed on a FACSaria flow sorter. […]

The next assay concerns Colo320 cells. Put plainly: Combination with 5-fluorouracil, 3H-thymidine incorporation. Type of assay: cell-based. As to conditions: Colo320, increasing concentrations of 5-FU. The protocol:
To test whether the anti-proliferative effect of SAH-BCL9B could synergize with other agents commonly used to treat MM or CRC, combination treatment studies were conducted. Indeed, the cytotoxic effects of 5-fluorouracil on CRC cells and of doxorubicin on MM cells were enhanced by SAH-BCL9B, but not by vehicle or the mutant peptide. See results in FIG. 21.

Numbered stars: 1 amine (or outer) side, 2 acyl side, 3 side chain; on linkers, the order of the positions; unused ones are H or OH. Bridge positions count the residues as written; N and C are the ends. Square brackets hold non-standard residues; d marks the D form. Peptide text beside a SMILES is read from it. ξ: configuration not given here. ξαMeNle(6-ylidene) = CC(CCCC=[*:3])(N[*:1])C(=O)[*:2]; Nle = CCCC[C@H](N)C(=O)O

This is an account of results in patent US12534501B2, “Targeting deregulated Wnt signaling in cancer using stabilized alpha-helices of BCL-9” (Dana-Farber Cancer Institute, Inc., priority 2011, dated 2026).

For the molecule `CCCC[C@H](NC(=O)[C@H](CCCNC(=N)N)NC(=O)[C@H](CCC(N)=O)NC(=O)[C@@H](NC(=O)C1(C)CCCC=CCCCC(C)(NC(=O)[C@H](CC(C)C)NC(=O)[C@H](CO)NC(=O)[C@H](CCCNC(=N)N)NC(=O)[C@H](CCC(=O)O)NC(=O)[C@H](CCCNC(=N)N)NC(=O)[C@H](Cc2c[nH]cn2)NC(=O)[C@H](CCC(=O)O)NC(=O)[C@H](CC(C)C)NC(=O)[C@H](CCC(N)=O)NC(=O)[C@H](CCC(=O)O)NC(=O)[C@H](CCC(N)=O)NC(=O)[C@H](CO)NC(=O)[C@H](CC(C)C)NC(C)=O)C(=O)N[C@@H]([C@@H](C)O)C(=O)N[C@@H](CC(C)C)C(=O)N[C@@H](CCCNC(=N)N)C(=O)N1)[C@@H](C)CC)C(=O)N[C@@H](CC(C)C)C(=O)N[C@@H](Cc1ccccc1)C(N)=O` (stereo partly drawn) [SAH-BCL9B] (Ac-LSQEQLEHRERSL[ξαMeNle(6-ylidene)]TLR[ξαMeNle(6-ylidene)]IQR[Nle]LF-NH2; staple 14-18), the shuIL-6R serum levels result in assay [1] (10 doses) is reported as “low to undetectable levels”. Also, the “local angiogenesis (anti-CD34 staining, blood vessel quantitation)” value in assay [1] (5 mg/kg local, 10 doses) was “suppressed”. Moreover, the “tumor burden within the bone chip” value in assay [1] (5 mg/kg local, 10 doses, day 33) is listed as “significantly reduced”. Besides, the “TUNEL positivity in myeloma tumor tissue” value in assay [1] (bone chips bearing INA-6 cells) is “notably increased TUNEL positivity”. Besides, the “tumor cell invasion outside the bone chip” value in assay [1] (day 33) is “resided within the confines of the bone chip”. Moreover, in assay [2], the “reduction of Wnt-specific TCF reporter activity” value is reported as ~50%. Moreover, the dGFP expression result in assay [3] is “dose-responsively blocked dGFP expression”. Moreover, the “enhancement of anti-tumor activity of 5-fluorouracil” value in the assay with Colo320 cells was “significantly enhanced the anti-tumor activity”.

As for “SAH-BCL9B(R359E): SEQ ID NO: 7: LSQEQLEHEERSLXTLRXIQRBLF; reverse polarity point mutant, negative control of SAH-BCL9B”, the shuIL-6R serum levels result in assay [1] (10 doses) was “progressive increase in shuIL-6R levels”. Also, the “tumor cell invasion outside the bone chip” value in assay [1] (day 33) is recorded as “invasion into the surrounding soft tissue”. Moreover, in assay [2], the “reduction of Wnt-specific TCF reporter activity” value is on record as “no effect”. Also, the dGFP expression result in assay [3] is on record as “little to no effect”.
